A short description of data set [1]: XRPD and mDSC characterization of spray dried solid dispersions (t=0). Particulars: Characterization (t = 0). Type of data set: physicochemical. As for the experimental part:
X-ray power diffraction (XRPD): XRPD patterns were collected on a Bruker AXS D2 diffractometer using Cu Kα radiation (30 kV, 10 mA), θ-θ geometry, using a LynxEye detector from 5-42° […].
The details of the data collection are: • Angular range: 5 to 42° 2θ • Step size: 0.024° 2θ • Collection time: 0.1 seconds per step.
Samples were run under ambient conditions and prepared as flat plate specimens using powder without grinding. Approximately 1-2 mg of the sample was lightly pressed on a silicon wafer to obtain a flat surface.
Modulated differential scanning calorimetry (mDSC): TOPEM® is a temperature modulated DSC method which differs from conventional DSC in allowing the total heat flow to be separated into reversing and non-reversing heat flow components. Such techniques help distinguish between processes or transitions that overlap or lie very close to one another. The glass transition temperature (Tg) was determined from the reversible heatflow component.
TOPEM® DSC data were collected on a Mettler DSC 3+ equipped with a 34 position auto-sampler. The instrument was calibrated for energy and temperature using certified indium. Typically, 3-5 mg of each sample, in a pin-holed aluminium pan, was heated at 2 K·min^−1 from 30° C. to 220° C. with a pulse height of 0.64 K and a pulse width 15-30 sec. A nitrogen purge at 50 mL·min^−1 was maintained over the sample. […]

The nature of data set [2]: XRPD of freeze-dried solid dispersions and admixtures. Particulars: as prepared, solid form of psilocybin (PY) in freeze-dried dispersion, physical mixture or starting material. Type of data set: physicochemical. As for the experimental part: The samples were prepared in silicon low background holders using light manual pressure to keep the sample surface flat and level with the reference surface of the sample holder. The single crystal Si low background holder has a circular recess (10 mm diameter and about 0.2 mm depth) that holds the sample.
The Rigaku Smart-Lab diffraction system used was configured for Bragg-Brentano reflection geometry using a line source X-ray beam. The Bragg-Brentano geometry was controlled by passive divergence and receiving slits with the sample itself acting as the focusing component for the optics. The figures were created using PlotMon V2.1.1.0.
High-resolution XRPD analysis was performed using Rigaku Smart-Lab diffraction system configured for Debye-Scherrer transmission geometry. The Debye-Scherrer convergent beam geometry utilizes a curved x-ray mirror to focus the incident beam through the sample and onto the detector plane. The axial divergence of the X-ray beam was controlled by 5.0° Soller slits in both the incident and diffracted beam paths.
Freeze-dried solid dispersions of Examples 1-5, and corresponding Reference Examples, were characterized using X-ray powder diffraction (XRPD).

Structures are written as SMILES. Marks after values point to notes of the source that are not given here.

For `CN(C)CCc1c[nH]c2cccc(OP(=O)(O)O)c12` [Psilocybin (PY), 3-(2-(dimethylamino)ethyl)-1H-indol-4-yl dihydrogen phosphate], the XRPD entry in data set [1] is given as “Amorphous”. The same compound gave a Tg in data set [1] (mDSC) of 161 °C.
As to `CN(C)CCc1c[nH]c2cccc(OP(=O)(O)O)c12` [Crystalline PY starting material, 3-(2-(dimethylamino)ethyl)-1H-indol-4-yl dihydrogen phosphate], the “XRPD Results” value was “crystalline PY (methanol solvate)^a” in data set [2] and “crystalline psilocybin methanol solvate with a small quantity of Form B” in data set [2] (listed as crystalline psilocybin starting material).

These data come from patent US20240261306A1, “FORMULATIONS OF PSILOCYBIN” (CYBIN IRL LIMITED, priority 2021, published 2024).
